This is an account of results in PMC12592502, “Unraveling the mechanisms behind the enhanced efficacy of β-lactam-based sideromycins” (Communications Biology, 2025).

≈ marks a conversion by molar mass, not a printed value. Where “and” joins values, the source holds several entries; their conditions need not be identical. Identical values can stand only once. Like-named read-outs stand apart in the source and are kept apart here. A value given as a limit tells only on which side of the number the result lay.

In experiment [1] the test system is E. coli ΔentE. The experiment is described as follows: MIC, Keio mutant. Type of experiment: cell-based, Escherichia coli. The procedure: (§1) All bacterial strains (see description and sources Table S1) were stored at −80 °C, and grown on tryptone soya agar (TSA) at 35 °C. The iron-deprived (ID)-MHBCA (cation-adjusted Muller-Hinton Broth, Becton Dickinson, Mississauga, ON, Canada) medium was prepared as reported by refs. [21],[50]. Briefly, MHBCA was treated with 10% Chelex® 50-100 mesh (Sigma) and stirred for 6 h at room temperature. The resin was removed by filtration. Divalent Ca^2+ (CaCl2), Mg^2+ (MgCl2), and Zn^2+(ZnSO4), were then added in the iron-depleted medium at 22, 12, and 1 μg/ml respectively. Finally, the pH was adjusted to 7.3, and the medium was sterilized with a 0.2-μm filter. Regular MHBCA (i.e., not treated with Chelex®) was used to compare the inhibitory activity of conjugates in iron-sufficient conditions.
(§2) Minimal inhibitory concentrations (MICs) were performed using a broth microdilution technique according to the Clinical and Laboratory Standards Institute (CLSI) guidelines. MICs were determined in MHBCA and in ID-MHBCA. To check the impact of β-lactamases, MICs in the presence of a β-lactamase inhibitor were also determined. The inhibitor was homogenized at 2X the final concentration and added to the bacterial inoculum just before distributing cells into the wells containing the drug dilutions. The final concentration of each inhibitor was 4 μg/mL for clavulanic acid (tested against K. pneumoniae) and 200 μg/mL for 3-aminophenylboronic acid (tested against P. aeruginosa and A. baumannii).

Experiment [2] relates to E. coli ΔfecA. The experiment is described as follows: MIC, Keio mutant. It is filed as cell-based, Escherichia coli. The procedure: as §1, §2
For experiment [3], the system named is E. coli ΔfepA. Description: MIC, Keio mutant. Type of experiment: cell-based, Escherichia coli. The procedure:
as §1, §2

Experiment [4] deals with E. coli ΔtonB. The experiment is described as follows: MIC, Keio mutant. It is filed as cell-based, Escherichia coli. The note with it: ΔtonB, MHBCA. The procedure: as §1, §2
In experiment [5] the test system is E. coli MC4100. The experiment is described as follows: Bactericidal effect in the uptake assay (CFU counts). Type of experiment: cell-based, Escherichia coli. The note with it: 200 μM drug; for dCFU (Δlog10 CFU/mL, count with drug minus growth control): time 0 h, single replicates. The source says:
The bactericidal effect determined at each time point was the difference in the concentration of bacteria in the assay tube with antibiotic and that measured in the growth control tube without drug (ΔLog10 CFU/mL). The normal distribution of the data was verified with the Shapiro–Wilk test and the statistical analysis was a comparison of repeated measures ANOVA (*p ≤ 0.05, **p ≤ 0.01, ***p ≤ 0.001) between each time point relatively to the 0-h time point.

Experiment [6] deals with P. aeruginosa ATCC 27853. Description: MIC, broth microdilution (CLSI). It is filed as cell-based, Pseudomonas aeruginosa. The procedure:
as §1, §2
On the technique in general: Broth dilution looks for growth in wells or tubes with falling amounts of substance.

Experiment [7] deals with T1, purified PBP3 of P. aeruginosa (PaPBP3) (Pseudomonas aeruginosa, UniProt G3XD46).
T1 construct: (residues 53 to 579) from P. aeruginosa ATCC 27853 (PaPBP3); His6 (C); made in house; host or cells: E. coli BL21 DE3
Description: biochemical. Type of experiment: binding. The following applies: 150 ng PaPBP3, 500 nM Bocillin FL, n = 3; read-out: IC50 PaPBP3 purified. The procedure:
The PBP binding assay was done as described previously[36],[56],[57]. For each antibiotic concentration tested, a quantity of 25 to 40 μg of membrane preparation was used as the source of PBPs, depending on the species. For the purified PaPBP3, 150 ng was used in the assay. First, increasing concentrations of the test antibiotic was added to the membrane or purified PaPBP3 preparations and incubated for 10 min at 30 °C. The reporter molecule Bocillin FL was then added at 12.5 μM for the membrane PBPs preparations and at 500 nM for the pure PaPBP3 samples for an additional 20 min at 30 °C. All reactions were stopped with the addition of the Laemmli-loading buffer (Bio-Rad) containing fresh β-mercaptoethanol (Sigma). All reactions were then heated at 100°C for 3 min before migration on SDS-polyacrylamide discontinuous gel system (7.5% stacking and 10% separating). Control samples without Bocillin FL were also included to highlight autofluorescent proteins that are not PBPs.
To be able to visualize labeled PBPs after electrophoresis, gels were rinsed in water and fixed in a solution of 50% methanol and 7% acetic acid for 30 min. The fluorescent images of gels were obtained with the Typhoon FLA 9500 instrument (GE-Healthcare Bio-Sciences Inc., Baie-d’Urfé, QC, CA) using a 473 nm excitation wavelength. To obtain quantifiable data, the software Quantity One 1D analysis was used (version 4.6.6; Bio-Rad Laboratories, Richmond, CA). The volume (intensity × constant area) of each PBP was measured. […] All IC50 data were obtained from at least two independent PBP binding assays using two different sets of compound concentrations using a linear regression.

Usually MIC stands for the least concentration at which growth counts as inhibited. A word on the IC50: it is the midpoint of a concentration-inhibition curve.

T1 sequence (G3XD46 53-579): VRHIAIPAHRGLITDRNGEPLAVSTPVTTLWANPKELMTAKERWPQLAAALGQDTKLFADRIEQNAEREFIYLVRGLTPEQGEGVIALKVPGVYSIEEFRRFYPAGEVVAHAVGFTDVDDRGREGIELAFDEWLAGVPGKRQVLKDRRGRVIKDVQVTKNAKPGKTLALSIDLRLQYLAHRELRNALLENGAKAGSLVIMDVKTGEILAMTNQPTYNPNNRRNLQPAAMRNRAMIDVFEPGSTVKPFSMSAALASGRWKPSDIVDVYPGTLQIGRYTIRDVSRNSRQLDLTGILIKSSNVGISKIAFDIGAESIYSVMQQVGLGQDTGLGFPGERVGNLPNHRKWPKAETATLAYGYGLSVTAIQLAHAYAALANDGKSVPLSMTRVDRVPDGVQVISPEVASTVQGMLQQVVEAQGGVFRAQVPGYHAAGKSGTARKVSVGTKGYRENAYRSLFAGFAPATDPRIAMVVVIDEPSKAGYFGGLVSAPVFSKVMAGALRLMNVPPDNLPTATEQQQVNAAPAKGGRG

Take `N[C@@H](C(=O)N[C@@H]1C(=O)N2C(C(=O)O)=C(Cl)CC[C@H]12)c1ccccc1` [LOR, loracarbef, reference compound]: the MIC in experiment [1] (ID-MHBCA) was determined as 6.3 µM (≈ 2.2 µg/mL); in experiment [1] (MHBCA), 6.3 µM (≈ 2.2 µg/mL); in experiment [2] (ID-MHBCA), 6.3 µM (≈ 2.2 µg/mL); in experiment [2] (MHBCA), 3.1 µM (≈ 1.08 µg/mL); in experiment [3] (ID-MHBCA) it was 13 µM (≈ 4.55 µg/mL); in experiment [3] (MHBCA), 6.3 µM (≈ 2.2 µg/mL). For the same molecule, the MIC in experiment [4] was 6.3 µM (≈ 2.2 µg/mL); in experiment [6] (ID-MHBCA (−), 0 µg/mL supplemental iron, read-out: MIC), >200 µM; in experiment [6] (ID-MHBCA + 1 µg/mL supplemental iron, read-out: MIC), > 200 µM; in experiment [6] (ID-MHBCA, + 200 μg/mL APB, read-out: MIC with β-lactamase inhibitor (βI)), >200 µM; in experiment [6] (MHBCA (+), no inhibitor, read-out: MIC), >200 µM; in experiment [6] (MHBCA, + 200 μg/mL 3-aminophenylboronic acid (APB), read-out: MIC with β-lactamase inhibitor (βI)) it was >200 µM. Also, in experiment [5] (4-h time point, MHBCA, inoculum 8.5 log10 CFU/mL), the “bacterial inhibition, less than the control without antibiotic” value is recorded as ~ 1.2 log10 CFU/mL. Besides, the “dCFU (Δlog10 CFU/mL, count with drug minus growth control)” value in experiment [5] (ID FALSE (MHBCA)) is 0.02669 and 0.4114 and -0.0313; in experiment [5] (ID TRUE (ID-MHBCA)), -0.2509 and -0.1259 and -0.06378. In addition, the “MIC in combination with PAβN” value in experiment [6] (MHBCA, + 25 µg/mL PAβN) is given as > 200 µM. In addition, the concentration for half-maximal inhibition (IC50) in experiment [7] was determined as 8.6 ± 3.6 µM.
